Test results reported in patent US6602881B2, “Anti-inflammatory uses of manzamines” (priority 1999, dated 2003).

What was measured:
Type in all cases: cell-based
[1] = system: LPS activated BMΦ (rat microglia); assay: Assay for BMΦ O2− generation (SOD-inhibitable reduction of ferricytochrome C), PMA-stimulated, LPS-activated BMΦ; conditions: PMA (1 μM)-stimulated O2− release from LPS (0.3 ng/ml, 17 h)-activated rat BMΦ, manzamine 20 min preincubation + 70 min
Experimental: (§1) Isolation and culture of rat BMΦ. Briefly to prepare primary BMΦ cultures, cerebral cortices from 1-2-day-old Sprague-Dawley rats (Harlan, Indianapolis, Ind.) were placed in cold DMEM+10% heat-inactivated FBS+120 U/ml P and 12 μg/ml S, meninges carefully removed, brain tissue minced and dissociated with trypsin-EDTA at 37° C. for 3-5 minutes. The mixed glial cell suspension was plated in either 75 or 162 cm^2 culture flasks with DMEM containing 10% heat-inactivated FBS+120 U/ml P and 12 μg/ml S and grown in a humidified 5% CO2 incubator at 37° C. On day 7 of culture, flasks were shaken (90 rpm, 20 min, 37° C.) and media exchanged. On day 14 and every 3-4 days thereafter, BMΦ were detached using an orbital shaker (200 rpm, 2 hours, 37° C., 5% CO2), then centrifuged (450×g, 25 min, 4° C.). The pellet containing BMΦ was resuspended gently with cold DMEM, cell number and viability assessed by trypan blue exclusion. Purified BMΦ obtained by our method averaged>than 95% viability. Microglia were characterized as previously described (Mayer et al., 1999, supra).
Assay for BMΦ O2^− generation. BMΦ O2^− generation was determined by the superoxide dismutase(SOD)-inhibitable reduction of ferricytochrome C(FCC) (Mayer et al., 1999, supra). Briefly, spontaneous O2^− release from unstimulated BMΦ was measured in the presence of FCC (50 μM) and HBSS with or without SOD (700 units). To determine PMA-stimulated O2^− release, BMΦ containing wells received FCC, HBSS and PMA [1 μM] with or without SOD which inhibited>95% of FCC reduction. All experimental treatments were run in triplicate and in a final volume of 1 ml. Changes in absorbance of BMΦ supernatants were measured at 550 nm using a Beckman DU-650 Spectrophotometer. Differences in the amount of reduced FCC in the presence or absence of SOD were used to determine BMΦ O2^− generation by employing the molecular extinction coefficient of 21.0×10^3 M^−1 cm^−1.
(§2) To establish the effect of Manzamine A, B, C, D, E and F on BMΦ O2^−, TXB2, and LDH generation the following procedure was used:
(§3) (1) 2-5×10^5 BMΦ were seeded into each well of 24-well flat-bottom culture clusters.
(§4) (2) 1 ml of DMEM+10% heat-inactivated FBS+120 U/ml P and 12 μg/ml S were added.
(§5) (3) BMΦ were allowed to attach for 2 hours, at 37° C., 5% CO2, and monolayers then washed 3 times with 1 ml warm (37° C.) DMEM+10% heat-inactivated FBS+120 U/ml P and 12 μg/ml S were added.
(§6) (4) 1 ml of DMEM+10% heat-inactivated FBS+120 U/ml P and 12 μg/ml S were added.
(§7) (5) Then, LPS (0.3 ng/ml final concentration) was added to each well.
(§8) (6) BMΦ were then incubated for 17 hours in a humidified 5% CO2 incubator at 37° C.
(§9) (7) Thereafter, the media was removed from each tissue culture well and discarded.
(§10) (8) BMΦ monolayers were washed 3 times with 1 ml warm (37° C.) HBSS.
(§11) To study the effect of Manzamines A, B, C, D, E and F on PMA-stimulated release of O2^− and TXB2 from BMΦ activated with LPS as described in (A) we proceeded as follows.
(§12) (1) Add HBSS, Manzamines A, or B, or C, or D, or E, or F, DMSO and Triton X-100 1% to the tissue culture wells containing LPS-activated BMΦ, as shown in Table 1.
(§13) (2) Incubate the tissue culture plates for 20 minutes in a humidified 5% CO2 incubator at 37° C.
(§14) (3) Remove the tissue culture plates from the incubator and return to laminar flow hood.
(§15) (4) Incubate tissue culture plates for an additional 70 minutes in CO2 incubator at 37° C.
(5) When incubation is complete, aspirate BMΦ supernates from each well (1 ml), and place in a 1.5 ml microcuvette. Proceed to reach absorbance as indicated above in Assay for BMΦ O2^− generation.

[2] = system: LPS activated BMΦ (rat microglia); assay: Assay for BMΦ thromboxane B2 (TXB2) generation (immunoassay), PMA-stimulated, LPS-activated BMΦ; conditions: PMA (1 μM)-stimulated TXB2 release from LPS (0.3 ng/ml, 17 h)-activated rat BMΦ, manzamine 20 min preincubation + 70 min
Experimental: as §1
Assay for BMΦ thromboxane B2 (TXB2) generation. Following stimulation with PMA, TXB2 generation in the BMΦ culture supernatants was measured using immunoassays (Cayman Chemical, Ann Arbor, Mich.) as indicated by the manufacturer's protocol (Mayer, et al., 1999, supra).
as §2, §3, §4, §5, §6, §7, §8, §9, §10, §11, §12, §13, §14, §15
(§16) (6) Once (5) is completed use the same BMΦ supernates to determine both LDH and TXB2 as described above in Assay for BMΦ TXB2 generation and LDH assay.

[3] = target: LPS activated BMΦ (rat microglia); assay: LDH assay (lactate dehydrogenase release, BMΦ viability); conditions: LDH release (toxicity) from LPS-activated rat BMΦ, same supernates
Experimental: as §1
LDH assay. To assess BMΦ viability following incubation with vehicle (DMSO) or the manzamines, lactate dehydrogenase (LDH) release was determined spectrophotometrically as previously described (Mayer et al., 1999, supra).
as §2, §3, §4, §5, §6, §7, §8, §9, §10, §11, §12, §13, §14, §15, §16

## O[C@]12C=C(c3nccc4c3[nH]c3ccccc34)[C@@H]3CCN(CCCC/C=C\CC1)C[C@@]31C[C@@H]3/C=C\CCCCN3[C@H]12 [Manzamine A, manzamine A]
[1]
  IC50: 0.1 µM
[2]
  IC50: < 0.1 µM
[3]
  IC50: > 30 µM

## C1=C\CC[C@]23CN4CCCC/C=C\CC[C@@]5(OC5[C@@H](c5nccc6c5[nH]c5ccccc56)[C@@H]2CC4)[C@@H]3NCCCC/1 (some centres unmarked) [Manzamine B, manzamine B]
[1]; Microglia
  IC50: ~5 µM
[2]; Microglia
  IC50: ~3 µM
[3]; Microglia
  IC50: ~3 µM

## C1=C\CCCCN(CCc2nccc3c2[nH]c2ccccc23)CCCC/1 [Manzamine C, manzamine C]
[1]; Microglia
  IC50: ~5 µM
[2]; Microglia
  IC50: ~5 µM
[3]; Microglia
  IC50: ~5 µM

## O[C@]12C=C(C3NCCc4c3[nH]c3ccccc43)[C@@H]3CCN(CCCC/C=C\CC1)C[C@@]31CC3/C=C\CCCCN3[C@H]12 (some centres unmarked) [Manzamine D, manzamine D]
[1]; Microglia
  IC50: ~0.5 µM
[2]; Microglia
  IC50: ~0.3 µM
[3]; Microglia
  IC50: ~0.5 µM

## O=C1CCCN2C(CC1)C[C@]13CN4CCCC/C=C\CC[C@](O)(C=C(c5nccc6c5[nH]c5ccccc56)[C@@H]1CC4)[C@H]23 (some centres unmarked) [Manzamine E, manzamine E]
[1]; Microglia
  IC50: > 10 µM
[3]; Microglia
  IC50: > 10 µM

## O=C1CCCN2[C@@H](CC1)C[C@]13CN4CCCC/C=C\CC[C@](O)(C=C(c5nccc6c5[nH]c5c(O)cccc56)C1CC4)[C@H]23 (some centres unmarked) [Manzamine F, manzamine F]
[1]; Microglia
  IC50: > 10 µM
[2]; Microglia
  IC50: > 10 µM
[3]; Microglia
  IC50: > 10 µM
